From US7820374B2, “Detection methods based on HR23 protein binding molecules” (Erasmus Universiteit Rotterdam, priority 2001, dated 2010)
Where a SMILES comes first, the peptide text is derived from it. The star is where a group is joined. Cbz = O=C(OCc1ccccc1)*

Columns and labels:
[1] = test system: DKO cells expressing hXPC-GFP/hHR23B; experiment: XPC-GFP accumulation in living DKO cells expressing hXPC-GFP/hHR23B after exposure to agents (fluorescence microscopy); assay type: cell-based, mouse
Procedure: Cells stably expressing hXPC-GFP/hHR23B were rinsed with PBS, exposed to UV-C light (254 nm; Philips TUV lamp, dose as indicated in the text) and subsequently cultured at 37° C. for various time periods (as indicated in the text). XPC was detected either by immunoblot analysis or by visualization in living cells using fluorescence microscopy. A similar approach was used to study the effect of N-acetoxy-2-acetylaminofluorene (NA-AAF, final concentration 50 or 100 μM), mitomycin C (MMC, Sigma, final concentration 1.2 or 2.4 μg/ml), ionizing radiation (γ-rays from a ^137Cs source, single dose of 6 and 10 Gy), the proteasome inhibitor N-CBZ-LEU-LEU-LEU-AL (CBZ-LLL, Sigma, final concentration 5 or 10 μM), the transcription inhibitor 5,6-dichloro-1β-D-ribofuranosyl-benzimidazole (DRB, Sigma, final concentration of 100 μM, 2-3 hrs), the translation inhibitor cyclohexamide (CHX, Boehringer, final concentration 30, 50, and 100 μg/ml, 1-3 hours), heat shock (39.5 and 41° C., for 2-12 hrs), and the nuclear export inhibitor leptomycin B (LMB, Sigma, final concentration 10 ng/ml).
Immunofluorescent microscopy images were obtained with either a Leitz Aristoplan microscope equipped with epifluorescene optics and a PlanApo 63×/1.40 oil immersion lens or a Leica DMRBE microscope equipped with epifluorescene optics and a PL Fluotar 100×/1.30 oil immersion lens. For the detection of GFP-tagged proteins in the living cell, an Olympus IX70 microscope equipped with epifluorescence optics and Olympus PlanApo 60×/1.40 oil immersion lens was used. GFP images were obtained after excitation with 455-490 and long pass emission filter (>510 nm). Cy-3 images were obtained after excitation with 515-560 and long pass emission filter (580 nm).

[2] = test system: CRM1/Exportin1-mediated nuclear export of XPC-GFP; experiment: Heterokaryon nuclear-cytoplasmic shuttling assay (DKO cells expressing XPC-GFP/hHR23B fused to HeLa cells); assay type: cell-based, mouse/human heterokaryon; conditions: LMB 10 ng/ml directly after cell fusion; XPC-GFP induced by 10 J/m^2 UV-C 6 hr prior to fusion; 4 hr after fusion
Procedure: The shuttling assay using heterokaryons was performed as described (Borer et al., 1989). One day before cell fusion, DKO cells stably expressing hXCPC-GFP/hHR23B and HeLa cells were seeded in a 1:1 ratio on coverslips. Six hours prior to fusion, cells were irradiated with 10 J/m^2 UV-C or treated with 10 μM CBZ-LLL. Cell-fusion was induced (after washing with PBS) by treatment with 50% polyethylene glycol 6,000 in HANKS™ (Gibco) for 2 min followed by (3×) washing with PBS. Finally, cells were cultured in fresh medium either supplemented with or without leptomycin B (LMB, final concentration 10 ng/ml). Three to five hours after fusion, cells were fixed with 2% paraformaldehyde and immunostained with rat monoclonal anti-HA (to monitor the XPC-GFP-His6HA protein) and rabbit polyclonal anti-human ERCC1 (to distinguish human nuclei from mouse nuclei, since it specifically recognizes human ERCC1) and subsequently with appropriate secondary antibodies (see above).

Compound: CO[C@@]12[C@H](COC(N)=O)C3=C(C(=O)C(C)=C(N)C3=O)N1C[C@@H]1N[C@@H]12 [MMC, mitomycin C]
- XPC accumulation (hXPC-GFP fluorescence) ([1]; MMC 1.2 and 2.4 μg/ml): failed to provoke detectable XPC accumulation

Compound: CCC(=C/[C@H](C)C/C=C/C(C)=C/[C@@H](C)C(=O)[C@@H](C)[C@H](O)[C@@H](C)C/C(C)=C/C(=O)O)/C=C/[C@@H]1OC(=O)C=C[C@@H]1C [LMB, leptomycin B]
- exchange of nuclear XPC-GFP from mouse (DKO) nuclei to human (HeLa) nuclei [2]: prevented this exchange

Compound: CC(=O)ON(C(C)=O)c1ccc2c(c1)Cc1ccccc1-2 [NA-AAF, N-acetoxy-2-acetylaminofluorene]
- XPC accumulation (hXPC-GFP fluorescence) ([1]; NA-AAF 50 and 100 μM, within 6 to 8 hrs): very potent UV-like response in all cells

Compound: OC[C@H]1O[C@@H](n2cnc3cc(Cl)c(Cl)cc32)[C@H](O)[C@@H]1O [DRB, 5,6-dichloro-1β-D-ribofuranosyl-benzimidazole]
- induction of XPC-GFP fluorescence ([1]; DRB 100 μM alone, no DNA damage): No induction of XPC-GFP fluorescence was observed
- UV-induced XPC-GFP accumulation ([1]; preincubation with DRB (2-3 hrs) prior to UV treatment, data not shown): prevented UV-induced XPC-GFP accumulation

Compound: C[C@@H]1C[C@@H]([C@H](O)CC2CC(=O)NC(=O)C2)C(=O)[C@@H](C)C1 [cyclohexamide]
- XPC fluorescence ([1]; cyclohexamide 30 and 50 μg/ml): no enhanced XPC fluorescence was found

Compound: CC(C)C[C@@H](C=O)NC(=O)[C@H](CC(C)C)NC(=O)[C@H](CC(C)C)NC(=O)OCc1ccccc1 [CBZ-LLL, N-CBZ-LEU-LEU-LEU-AL] (Cbz-Leu-Leu-Leu-aldehyde)
- reversibility of XPC-GFP accumulation ([1]; CBZ-LLL 5 and 10 μM, after drug removal (not shown)): reversible upon drug removal
- XPC-GFP accumulation ([1]; CBZ-LLL 5 and 10 μM, confirmed by immunoblot and anti-HA immunocytochemistry): all cells displayed a striking XPC-GFP accumulation in time
